Experimental data published in the supplement of paper PMC10307832.

Key:
Assay in all cases: relative viability (nuclei count vs DMSO), 5 days (fraction); higher = more cells survive
[1] = compound: C1CNCCC1C2=CC(=NN2)C3=CC=NC=C3 + Cc1nc(NC(=O)N2CCC[C@H]2C(N)=O)sc1-c1ccnc(C(C)(C)C(F)(F)F)c1 [Alpelisib] (partner 2 µM)
Procedure, shortened: (§1)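 Lung cancer cell lines in 1536-well plates were dosed by pin tool the day after seeding, either with one drug alone or with a fixed anchor-drug dose plus five library-drug doses (not always all listed) in √10 steps. After 5 days, cells were fixed and their nuclei stained in one step (final 0.05% Triton X-100, 1% formaldehyde, 1 ug/ml Hoechst), then counted on 4× images. Relative viability is the nuclei count in treated wells divided by that in vehicle wells. Values are medians of duplicate plates.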

[2] = compound: C[C@@H](N)c1ccc(C(=O)Nc2ccnc3[nH]ccc23)cc1 + CS(=O)(=O)CCNCc1ccc(-c2ccc3ncnc(Nc4ccc(OCc5cccc(F)c5)c(Cl)c4)c3c2)o1 [Lapatinib] (partner 2 µM)
Procedure, shortened: as §1

[3] = compound: C1CNCCC1C2=CC(=NN2)C3=CC=NC=C3 + O=C(c1cc(Cc2n[nH]c(=O)c3ccccc23)ccc1F)N1CCN(C(=O)C2CC2)CC1 [Olaparib] (partner 8 µM)
Procedure, shortened: as §1

[4] = compound: C[C@@H](N)c1ccc(C(=O)Nc2ccnc3[nH]ccc23)cc1 + CC(=O)Nc1cccc(-n2c(=O)n(C3CC3)c(=O)c3c(Nc4ccc(I)cc4F)n(C)c(=O)c(C)c32)c1 [Trametinib] (partner 0.02 µM)
Procedure, shortened: as §1

Cell Line	relative viability ([1]; first compound 0.08 µM)	relative viability ([1]; first compound 0.8 µM)	relative viability ([1]; first compound 2.53 µM)	relative viability ([1]; first compound 8 µM)	relative viability ([2]; first compound 0.04 µM)	relative viability ([2]; first compound 0.1265 µM)	relative viability ([2]; first compound 0.4 µM)	relative viability ([2]; first compound 1.265 µM)	relative viability ([2]; first compound 4 µM)	relative viability ([3]; first compound 0.08 µM)	relative viability ([3]; first compound 0.8 µM)	relative viability ([3]; first compound 2.53 µM)	relative viability ([3]; first compound 8 µM)	relative viability ([4]; first compound 0.04 µM)	relative viability ([4]; first compound 0.1265 µM)	relative viability ([4]; first compound 0.4 µM)	relative viability ([4]; first compound 1.265 µM)	relative viability ([4]; first compound 4 µM)
LOU-NH91	0.698	0.677	0.811	0.749	0.701	0.749	0.801	0.575	0.709	0.927	0.963	0.974	0.877	0.746	0.796	0.739	0.644	0.539
LU99A	0.545	0.579	0.65	0.566	1.1	1.09	1.13	0.753	0.906	0.257	0.259	0.269	0.314	–	0.586	0.52	0.477	0.483
LXF-289	1.03	0.973	1.06	1	0.968	0.891	0.959	1.02	0.851	1.04	1.16	0.968	1.05	0.661	0.676	0.708	0.797	0.588
NCI-H23	0.614	0.691	0.713	0.69	0.945	1.27	1.18	–	0.924	0.375	–	0.403	0.349	0.422	0.427	0.386	–	0.483
NCI-H322M	1.39	0.7	0.933	0.761	0.807	0.63	0.665	–	0.824	0.73	0.716	0.844	0.923	0.625	0.61	0.701	0.617	0.684
NCI-H358	0.588	0.831	0.839	0.845	0.482	0.363	0.435	0.465	0.366	0.48	0.691	0.648	0.525	0.157	0.133	0.138	0.121	0.139
NCI-H460	0.381	0.343	0.593	0.62	0.974	1.1	0.984	1.12	1.03	0.303	0.505	0.451	0.412	0.217	0.165	0.243	0.0564	0.178
NCI-H520	0.88	0.666	0.831	0.658	1.08	0.953	0.949	0.742	1.03	0.332	0.356	0.381	0.266	0.915	0.73	0.697	0.891	0.719
NCI-H596	0.508	0.488	0.526	0.532	1.29	1.08	1.03	0.955	1.07	0.733	0.709	0.687	0.72	0.922	0.826	0.906	0.752	0.759
NCI-H647	0.969	1.12	1.31	1.22	0.961	1.07	1.16	1.06	0.901	0.556	0.661	0.511	0.552	0.387	0.47	0.46	0.424	0.385
NCI-H650	0.86	1.08	1.22	0.997	0.626	0.837	0.859	–	0.696	0.4	0.424	0.376	0.405	–	0.959	0.968	–	1.03
NCI-H661	0.879	0.647	0.799	0.733	0.503	0.587	0.607	0.401	0.449	0.705	0.757	0.75	0.733	0.48	0.595	0.571	0.475	0.494
NCI-H727	0.478	0.552	0.542	0.524	0.863	0.957	1.02	0.513	0.989	0.76	0.798	0.669	0.69	0.41	0.432	0.404	0.466	0.467
NCI-H838	0.984	1.11	1.03	0.996	0.683	0.922	0.708	0.445	0.427	0.708	0.795	0.815	0.799	0.261	0.512	0.45	0.289	0.192
NCI-H1355	0.826	0.706	0.804	0.822	0.973	0.972	1.03	–	0.924	0.704	0.727	0.792	0.792	0.482	0.427	0.446	0.433	0.393
NCI-H1395	0.977	0.77	1.46	0.975	0.935	1.2	0.954	–	0.941	0.46	0.404	0.447	0.522	1.04	0.996	1.03	–	0.912
NCI-H1437	0.941	0.979	0.999	0.928	0.842	0.782	0.825	0.772	0.737	0.636	0.644	0.679	0.642	0.647	0.572	0.681	0.601	0.638
NCI-H1651	0.767	1.09	0.904	1	1.04	0.859	0.975	0.784	0.967	0.174	0.202	0.191	0.176	0.877	0.862	0.959	0.941	0.848
